Biological target: ER (Homo sapiens (Human), UniProt P03372)
Test: Western blot analysis (Compounds B1-B278)
Format: cell-based
Settings: ER degradation by traditional Western blot; DC50 classes
In short: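 Compound-treated cells were lysed in RIPA buffer (Tris.HCl pH 7.6, 1% NP-40, deoxycholate, 0.1% SDS) with protease inhibitors; equal protein was resolved on 10% SDS-PAGE, transferred to PVDF and immunoblotted. Band intensities were quantified and normalized to GAPDH.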

Chain of ER (P03372 whole entry): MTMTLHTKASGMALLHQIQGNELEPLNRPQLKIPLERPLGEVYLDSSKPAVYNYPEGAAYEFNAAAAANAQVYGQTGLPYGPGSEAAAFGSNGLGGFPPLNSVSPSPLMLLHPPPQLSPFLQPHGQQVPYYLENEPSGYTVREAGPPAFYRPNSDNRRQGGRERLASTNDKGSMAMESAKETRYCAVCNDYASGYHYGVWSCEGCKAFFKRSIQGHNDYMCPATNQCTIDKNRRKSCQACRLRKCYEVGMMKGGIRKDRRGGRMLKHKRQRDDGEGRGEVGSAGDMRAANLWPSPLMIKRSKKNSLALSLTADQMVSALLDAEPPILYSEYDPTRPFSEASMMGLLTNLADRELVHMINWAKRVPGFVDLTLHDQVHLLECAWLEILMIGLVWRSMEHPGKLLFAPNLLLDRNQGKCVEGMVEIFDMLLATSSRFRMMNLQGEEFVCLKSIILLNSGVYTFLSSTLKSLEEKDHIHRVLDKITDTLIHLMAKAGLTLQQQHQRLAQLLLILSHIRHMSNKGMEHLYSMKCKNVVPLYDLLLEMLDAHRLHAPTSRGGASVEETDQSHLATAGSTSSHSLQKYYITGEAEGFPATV

SMILES	Traditional Western Degradation Potency
C[C@@H]1Cc2c([nH]c3ccccc23)[C@@H](c2c(F)cc(N3CC4(CC(C(=O)N5CCC(N6Cc7cc8c(cc7C6)C(=O)N(C6CCC(=O)NC6=O)C8=O)CC5)C4)C3)cc2F)N1CC(F)F (stereo partly drawn) [Compound B56, 6-(1-(2-(4-((1R,3R)-2-(2,2-difluoroethyl)-3-methyl-2,3,4,9-tetrahydro-1H-pyrido[3,4-b]indol-1-yl)-3,5-difluorophenyl)-2-azaspiro[3.3]heptane-6-carbonyl)piperidin-4-yl)-2-(2,6-dioxopiperidin-3-yl)-6,7-dihydropyrrolo[3,4-f]isoindole-1,3(2H,5H)-dione]	A (“A”: <10 nM)
C[C@@H]1Cc2c([nH]c3ccccc23)[C@@H](c2c(F)cc(N3CCC(N4CC(CN5Cc6cc7c(cc6C5)C(=O)N(C5CCC(=O)NC5=O)C7=O)C4)CC3)cc2F)N1CC(F)F (stereo partly drawn) [Compound B57, 6-((1-(1-(4-((1R,3R)-2-(2,2-difluoroethyl)-3-methyl-2,3,4,9-tetrahydro-1H-pyrido[3,4-b]indol-1-yl)-3,5-difluorophenyl)piperidin-4-yl)azetidin-3-yl)methyl)-2-(2,6-dioxopiperidin-3-yl)-6,7-dihydropyrrolo[3,4-f]isoindole-1,3(2H,5H)-dione]	B (“B”: 10-100 nM)
C[C@@H]1Cc2c([nH]c3ccccc23)[C@@H](c2c(F)cc(N3CCC(N4CCC(CN5Cc6cc7c(cc6C5)C(=O)N(C5CCC(=O)NC5=O)C7=O)CC4)CC3)cc2F)N1CC(F)F (stereo partly drawn) [Compound B58, 6-((1′-(4-((1R,3R)-2-(2,2-difluoroethyl)-3-methyl-2,3,4,9-tetrahydro-1H-pyrido[3,4-b]indol-1-yl)-3,5-difluorophenyl)-[1,4′-bipiperidin]-4-yl)methyl)-2-(2,6-dioxopiperidin-3-yl)-6,7-dihydropyrrolo[3,4-f]isoindole-1,3(2H,5H)-dione]	C (“C”: >100 nM)
C[C@@H]1Cc2c([nH]c3ccccc23)[C@@H](c2c(F)cc(N3CCC(N4CC(C(=O)N5Cc6cc7c(cc6C5)C(=O)N(C5CCC(=O)NC5=O)C7=O)C4)CC3)cc2F)N1CC(F)F (stereo partly drawn) [Compound B59, 6-(1-(1-(4-((1R,3R)-2-(2,2-difluoroethyl)-3-methyl-2,3,4,9-tetrahydro-1H-pyrido[3,4-b]indol-1-yl)-3,5-difluorophenyl)piperidin-4-yl)azetidine-3-carbonyl)-2-(2,6-dioxopiperidin-3-yl)-6,7-dihydropyrrolo[3,4-f]isoindole-1,3(2H,5H)-dione]	C (“C”: >100 nM)
C[C@@H]1Cc2c([nH]c3ccccc23)[C@@H](c2c(F)cc(N3CCC(N4CC(C(=O)N5Cc6cc7c(cc6C5)C(=O)N(C5CCC(=O)NC5=O)C7)C4)CC3)cc2F)N1CC(F)F (stereo partly drawn) [Compound B60, 3-(6-(1-(1-(4-((1R,3R)-2-(2,2-difluoroethyl)-3-methyl-2,3,4,9-tetrahydro-1H-pyrido[3,4-b]indol-1-yl)-3,5-difluorophenyl)piperidin-4-yl)azetidine-3-carbonyl)-1-oxo-3,5,6,7-tetrahydropyrrolo[3,4-f]isoindol-2(1H)-yl)piperidine-2,6-dione]	B (“B”: 10-100 nM)
C[C@@H]1Cc2c([nH]c3ccccc23)[C@@H](c2c(F)cc(N3CC(C(=O)N4CCC(CN5Cc6cc7c(cc6C5)C(=O)N(C5CCC(=O)NC5=O)C7=O)CC4)C3)cc2F)N1CC(F)F (stereo partly drawn) [Compound B61, 6-((1-(1-(4-((1R,3R)-2-(2,2-difluoroethyl)-3-methyl-2,3,4,9-tetrahydro-1H-pyrido[3,4-b]indol-1-yl)-3,5-difluorophenyl)azetidine-3-carbonyl)piperidin-4-yl)methyl)-2-(2,6-dioxopiperidin-3-yl)-6,7-dihydropyrrolo[3,4-f]isoindole-1,3(2H,5H)-dione]	A (“A”: <10 nM)
C[C@@H]1Cc2c([nH]c3ccccc23)[C@@H](c2c(F)cc(N3CC(C(=O)N4CCC(N5Cc6cc7c(cc6C5)C(=O)N(C5CCC(=O)NC5=O)C7=O)CC4)C3)cc2F)N1CC(F)F (stereo partly drawn) [Compound B62, 6-(1-(1-(4-((1R,3R)-2-(2,2-difluoroethyl)-3-methyl-2,3,4,9-tetrahydro-1H-pyrido[3,4-b]indol-1-yl)-3,5-difluorophenyl)azetidine-3-carbonyl)piperidin-4-yl)-2-(2,6-dioxopiperidin-3-yl)-6,7-dihydropyrrolo[3,4-f]isoindole-1,3(2H,5H)-dione]	A (“A”: <10 nM)
C[C@@H]1Cc2c([nH]c3ccccc23)[C@@H](c2c(F)cc(N3CCC(CN4CC(N5Cc6cc7c(cc6C5)C(=O)N(C5CCC(=O)NC5=O)C7=O)C4)CC3)cc2F)N1CC(F)F (stereo partly drawn) [Compound B63, 6-(1-((1-(4-((1R,3R)-2-(2,2-difluoroethyl)-3-methyl-2,3,4,9-tetrahydro-1H-pyrido[3,4-b]indol-1-yl)-3,5-difluorophenyl)piperidin-4-yl)methyl)azetidin-3-yl)-2-(2,6-dioxopiperidin-3-yl)-6,7-dihydropyrrolo[3,4-f]isoindole-1,3(2H,5H)-dione]	B (“B”: 10-100 nM)
C[C@@H]1Cc2c([nH]c3ccccc23)[C@@H](c2c(F)cc(N3CCC(N4CCC(CN5Cc6cc7c(cc6C5)C(=O)N(C5CCC(=O)NC5=O)C7=O)CC4)C3)cc2F)N1CC(F)F (stereo partly drawn) [Compound B64, 6-((1-(1-(4-((1R,3R)-2-(2,2-difluoroethyl)-3-methyl-2,3,4,9-tetrahydro-1H-pyrido[3,4-b]indol-1-yl)-3,5-difluorophenyl)pyrrolidin-3-yl)piperidin-4-yl)methyl)-2-(2,6-dioxopiperidin-3-yl)-6,7-dihydropyrrolo[3,4-f]isoindole-1,3(2H,5H)-dione]	C (“C”: >100 nM)
C[C@@H]1Cc2c([nH]c3ccccc23)[C@@H](c2c(F)cc(N3CCC(CN4CCC(CN5Cc6cc7c(cc6C5)C(=O)N(C5CCC(=O)NC5=O)C7=O)CC4)CC3)cc2F)N1CC(F)F (stereo partly drawn) [Compound B65, 6-((1-((1-(4-((1R,3R)-2-(2,2-difluoroethyl)-3-methyl-2,3,4,9-tetrahydro-1H-pyrido[3,4-b]indol-1-yl)-3,5-difluorophenyl)piperidin-4-yl)methyl)piperidin-4-yl)methyl)-2-(2,6-dioxopiperidin-3-yl)-6,7-dihydropyrrolo[3,4-f]isoindole-1,3(2H,5H)-dione]	A (“A”: <10 nM)
C[C@@H]1Cc2c([nH]c3ccccc23)[C@@H](c2c(F)cc(N3CCC(CN4CCC(N5Cc6cc7c(cc6C5)C(=O)N(C5CCC(=O)NC5=O)C7=O)C4)CC3)cc2F)N1CC(F)F (stereo partly drawn) [Compound B66, 6-(1-((1-(4-((1R,3R)-2-(2,2-difluoroethyl)-3-methyl-2,3,4,9-tetrahydro-1H-pyrido[3,4-b]indol-1-yl)-3,5-difluorophenyl)piperidin-4-yl)methyl)pyrrolidin-3-yl)-2-(2,6-dioxopiperidin-3-yl)-6,7-dihydropyrrolo[3,4-f]isoindole-1,3(2H,5H)-dione]	A (“A”: <10 nM)
C[C@@H]1Cc2c([nH]c3ccccc23)[C@@H](c2c(F)cc(N3CCC(CN4CCCC(N5Cc6cc7c(cc6C5)C(=O)N(C5CCC(=O)NC5=O)C7=O)CC4)CC3)cc2F)N1CC(F)F (stereo partly drawn) [Compound B67, 6-(1-((1-(4-((1R,3R)-2-(2,2-difluoroethyl)-3-methyl-2,3,4,9-tetrahydro-1H-pyrido[3,4-b]indol-1-yl)-3,5-difluorophenyl)piperidin-4-yl)methyl)azepan-4-yl)-2-(2,6-dioxopiperidin-3-yl)-6,7-dihydropyrrolo[3,4-f]isoindole-1,3(2H,5H)-dione]	A (“A”: <10 nM)
C[C@@H]1Cc2c([nH]c3ccccc23)[C@@H](c2c(F)cc(N3CCC(CN4CC5(CC(N6Cc7cc8c(cc7C6)C(=O)N(C6CCC(=O)NC6=O)C8=O)C5)C4)CC3)cc2F)N1CC(F)F (stereo partly drawn) [Compound B68, 6-(2-((1-(4-((1R,3R)-2-(2,2-difluoroethyl)-3-methyl-2,3,4,9-tetrahydro-1H-pyrido[3,4-b]indol-1-yl)-3,5-difluorophenyl)piperidin-4-yl)methyl)-2-azaspiro[3.3]heptan-6-yl)-2-(2,6-dioxopiperidin-3-yl)-6,7-dihydropyrrolo[3,4-f]isoindole-1,3(2H,5H)-dione]	A (“A”: <10 nM)
C[C@@H]1Cc2c([nH]c3ccccc23)[C@@H](c2c(F)cc(N3CCC(CN4CCC5(CC4)CC(N4Cc6cc7c(cc6C4)C(=O)N(C4CCC(=O)NC4=O)C7=O)C5)CC3)cc2F)N1CC(F)F (stereo partly drawn) [Compound B69, 6-(7-((1-(4-((1R,3R)-2-(2,2-difluoroethyl)-3-methyl-2,3,4,9-tetrahydro-1H-pyrido[3,4-b]indol-1-yl)-3,5-difluorophenyl)piperidin-4-yl)methyl)-7-azaspiro[3.5]nonan-2-yl)-2-(2,6-dioxopiperidin-3-yl)-6,7-dihydropyrrolo[3,4-f]isoindole-1,3(2H,5H)-dione]	B (“B”: 10-100 nM)
C[C@@H]1Cc2c([nH]c3ccccc23)[C@@H](c2c(F)cc(N3CCC(CN4CCC5(CCC(N6Cc7cc8c(cc7C6)C(=O)N(C6CCC(=O)NC6=O)C8=O)C5)CC4)CC3)cc2F)N1CC(F)F (stereo partly drawn) [Compound B70, 6-(8-((1-(4-((1R,3R)-2-(2,2-difluoroethyl)-3-methyl-2,3,4,9-tetrahydro-1H-pyrido[3,4-b]indol-1-yl)-3,5-difluorophenyl)piperidin-4-yl)methyl)-8-azaspiro[4.5]decan-2-yl)-2-(2,6-dioxopiperidin-3-yl)-6,7-dihydropyrrolo[3,4-f]isoindole-1,3(2H,5H)-dione]	B (“B”: 10-100 nM)

Source: US20260007681A1, “INDOLE DERIVATIVES AS ESTROGEN RECEPTOR DEGRADERS” (REGENTS OF THE UNIVERSITY OF MICHIGAN, priority 2022, published 2026)
